The values below come from patent publication EP2156836A1, “[…] PHARMACEUTICAL COMPOSITIONS CONSISTING OF A COMBINATION OF A 5 alpha-REDUCTASE ENZYME INHIBITOR AND A 1 alpha- […] RECEPTOR ANTAGONIST” (priority 2007, dated 2008).

For data set [1], the system named is Benign Prostatic Hyperplasia. The class given is in vivo, male patients. Conditions: for Clinical Progression of BPH at 12 months of treatment (patients/group) / Clinical Progression of BPH at 12 months of treatment: daily tablet 12 months: Alfuzosine 10 mg, Finasteride 5 mg; for Clinical Progression of BPH at 12 months of treatment (patients/group): combination Finasteride 5 mg + Alfuzosine 5 mg; for Clinical Progression of BPH at 12 months of treatment (patients/group) / Increase in symptoms according to the score from American Association of Urology at 12 months of treatment (patients/group): n=40 per group; for Side Effects / patients who discontinued the treatment: human, in vivo; for Clinical Progression of BPH at 12 months of treatment: combination 5 mg + 5 mg, n=40. On the procedure:
In this clinical trial several tests were performed wherein Placebo, Finasteride, Alfuzosine and a combination of Finasteride/Alfuzosine were administered to a population of patients diagnosed with Benign Prostatic Hyperplasia.
Said clinical trial was applied in 160 male patients with a 60-year old average, wherein the symptoms manifested according to Urology American Association ranking were scored (score is assigned according to the following criteria: from 0= No symptoms to 35= severe symptoms). […] Finally, vital signs, treatment compliance and side effects were assessed for each of the groups.
(§1) At the beginning and at the end of said clinical trial the following examinations were applied to the patients: digital rectal examination, prostate-specific antigen assessment and urine analysis.
Subjects were randomized and assigned to a double-blind study divided into 4 groups. Randomization was stratified and medicament administration at night. • Group 1 Placebo: Patients received a daily tablet along 12 months. • Group 2 Finasteride: Patients received a daily 5 mg tablet along 12 months. • Group 3 Alfuzosine: Patients received a daily 10 mg tablet along 12 months. • Group 4 Combination: Patients received a tablet with a combination of Finasteride 5 mg and Alfuzosine 5 mg daily along 12 months.

The next data set concerns prostate size. The conditions noted are these: cited from earlier work; for reduction of prostate size: Dutasteride daily dosage; for reduces prostate size: stated for the 5α-reductase enzyme inhibitors as a class.
The subject of data set [2] is Benign Prostatic Hyperplasia. Conditions: for Incontinence (patients/group) / Invasive Therapy due to BPH (patients/group) / Urinary Retention (patients/group) / Urinary Tract infection (patients/group) / Incontinence / Invasive Therapy due to BPH / Urinary Retention / Urinary Tract infection: 12 months; for Incontinence (patients/group) / Invasive Therapy due to BPH (patients/group) / Urinary Retention (patients/group) / Urinary Tract infection (patients/group) / Incontinence / Invasive Therapy due to BPH / Urinary Retention / Urinary Tract infection / Increase in symptoms according to the score from American Association of Urology at 12 months of treatment / Increase in symptoms according to the score from American Association of Urology at 12 months of treatment (patients/group): same dosing as E17; for Clinical Progression of BPH at 12 months of treatment (patients/group): daily tablet 12 months: Doxazosine titrated 1 to 8 mg, combination Dutasteride 0.5 mg + Doxazosine 1 mg; for Clinical Progression of BPH at 12 months of treatment (patients/group) / Clinical Progression of BPH at 12 months of treatment: Dutasteride 0.5 mg; for Clinical Progression of BPH at 12 months of treatment (patients/group) / Increase in symptoms according to the score from American Association of Urology at 12 months of treatment (patients/group): n=40 per group; for Side Effects / patients who discontinued the treatment: human, in vivo; for Incontinence / Invasive Therapy due to BPH / Urinary Retention / Urinary Tract infection / Clinical Progression of BPH at 12 months of treatment / Increase in symptoms according to the score from American Association of Urology at 12 months of treatment: percent of patients; for Clinical Progression of BPH at 12 months of treatment: Doxazosine titrated 1 to 8 mg, combination 0.5 mg + 1 mg, n=40. On the procedure: Said clinical trial was applied in 160 male patients with a 64-year old average, wherein the symptoms manifested according to Urology American Association ranking were scored (score is assigned according to the following criteria: from 0= No symptoms to 35= severe symptoms). […] Finally, vital signs, treatment compliance and side effects were assessed for each of the groups.
as §1
Subjects were randomized and assigned to a double-blind study divided into 4 groups.

The conditions of data set [3]: cited from earlier work; for serum concentrations as share of the equilibrium state concentration: daily dosage.
A further data set deals with BPH. The conditions noted are these: cited from earlier work.
In the next data set the test system is plasmatic proteins. Conditions: plasma; cited from earlier work.
For data set [4] the following is noted: in vivo; cited from earlier work.
For another data set, the system named is blood pressure. Conditions: after oral administration; cited from earlier work.
Setting [5] is: percent of patients, 12 months, same dosing as E1.
The mark [6] stands for this setting: percent of patients, same dosing as E1.

Where two headings read alike, the source gives them in different places. Bounds are passed on as bounds.

For the compound `COc1cc2nc(N(C)CCCNC(=O)C3CCCO3)nc(N)c2cc1OC` (stereo not drawn) [Alfuzosine], in data set [1] (12 months, same dosing as E1), the “Incontinence (patients/group)” value is reported as 4/40, the “Invasive Therapy due to BPH (patients/group)” value is listed as 4/40, the “Urinary Retention (patients/group)” value is on record as 21/40 and the “Urinary Tract infection (patients/group)” value is listed as 2/40. For the same compound, in data set [1], the “Clinical Progression of BPH at 12 months of treatment (patients/group)” value (“Clinical Progression of BPH … (patients/group)” below) is given as 18/40; the “Side Effects” value was “dizziness, postural hypotension, asthenia and impotence”; the “patients who discontinued the treatment” value stood at 95%. Besides, in data set [1] (setting [5]), the Incontinence was 10%, the “Invasive Therapy due to BPH” value was 10%, the “Urinary Retention” value is listed as 52.5% and the “Urinary Tract infection” value is 5%. The “Clinical Progression of BPH at 12 months of treatment” value in data set [1] (percent of patients) was determined as 45%. Besides, the “Increase in symptoms according to the score from American Association of Urology at 12 months of treatment” value in data set [1] (setting [6]) stood at 47.5%. Further, in data set [1] (same dosing as E1), the “Increase in symptoms according to the score from American Association of Urology at 12 months of treatment (patients/group)” value is 19/40.
As for `C[C@]12C=CC(=O)N[C@@H]1CC[C@@H]1[C@@H]2CC[C@]2(C)[C@@H](C(=O)Nc3cc(C(F)(F)F)ccc3C(F)(F)F)CC[C@@H]12` [Dutasteride], the “reduction of prostate size” value in the data set with prostate size (in some patients) is recorded as “up to 50%”. In the data set on prostate size, the “reduction of prostate size” value is on record as “at least 20%” and the reduces prostate size result is recorded as “up to 50%”. Further, in data set [2], the “Incontinence (patients/group)” value was 5/40, the “Invasive Therapy due to BPH (patients/group)” value is on record as 2/40, the “Urinary Retention (patients/group)” value is on record as 15/40 and the “Urinary Tract infection (patients/group)” value is on record as 1/40. For the same compound, in data set [2], the “Clinical Progression of BPH … (patients/group)” value is 11/40; the “Side Effects” value is reported as “erectile dysfunction, libido decrease and/or abnormal ejaculation”; the “patients who discontinued the treatment” value is on record as 60%; the Incontinence was determined as 12.5%. Besides, in data set [2], the “Invasive Therapy due to BPH” value came out at 5%, the “Urinary Retention” value was 37.5%, the “Urinary Tract infection” value came out at 2.5% and the “Clinical Progression of BPH at 12 months of treatment” value was 27.5%. In data set [2], the “Increase in symptoms according to the score from American Association of Urology at 12 months of treatment” value is given as 35% and the “Increase in symptoms according to the score from American Association of Urology at 12 months of treatment (patients/group)” value is 14/40. The half-life in blood in data set [3] (blood) is 3-5 weeks. The “serum concentrations as share of the equilibrium state concentration” value in data set [3] (after one month) is listed as 65%. In addition, the “serum concentrations as share of the equilibrium state concentration” value in data set [3] (after three months) is recorded as “approximately 90%”.
With `CC(C)(C)NC(=O)[C@H]1CC[C@H]2[C@@H]3CC[C@H]4NC(=O)C=C[C@]4(C)[C@H]3CC[C@]12C` [Finasteride], in data set [1] (12 months, same dosing as E1), the “Incontinence (patients/group)” value is given as 3/40, the “Invasive Therapy due to BPH (patients/group)” value is listed as 2/40 and the “Urinary Tract infection (patients/group)” value is reported as 1/40. Besides, in data set [1], the “Clinical Progression of BPH … (patients/group)” value is 13/40; the “Side Effects” value is given as “erectile dysfunction, libido decrease and/or abnormal ejaculation”; the “patients who discontinued the treatment” value worked out at 45%. Also, in data set [1] (setting [5]), the Incontinence was 7.5%, the “Invasive Therapy due to BPH” value is on record as 5% and the “Urinary Tract infection” value is listed as 2.5%. The “Clinical Progression of BPH at 12 months of treatment” value in data set [1] (percent of patients) came out at 32.5%. The “Increase in symptoms according to the score from American Association of Urology at 12 months of treatment” value in data set [1] (setting [6]) is reported as 37.5%. In data set [1] (same dosing as E1), the “Increase in symptoms according to the score from American Association of Urology at 12 months of treatment (patients/group)” value was 15/40. Moreover, the “Incidence of side effects during Finasteride treatment” value with BPH (most common: erectile dysfunction, decrease in ejaculated semen volume) is reported as “about 3%”. In the data set with BPH (patients who suffer BPH), the “reduction in DHT concentration in blood and in prostate gland” value was ≤ 30%; the “reduction of prostate-specific antigen (PSA) serum levels” value is “up to 50%”. The “efficacy in an analysis of six clinical studies” value with BPH (when prostate weighed >40 g, Logan YT, Belgeri MT 2005) is listed as “very effective”. The reduces prostate size result in the data set on prostate size is recorded as “up to 50%”.
As for `COc1cc2nc(N3CCN(C(=O)C4COc5ccccc5O4)CC3)nc(N)c2cc1OC` (stereo not drawn) [Doxazosine], the “bound to plasmatic proteins” value with plasmatic proteins is reported as 98-99%. Moreover, in data set [2], the “Incontinence (patients/group)” value is listed as 6/40, the “Invasive Therapy due to BPH (patients/group)” value is 5/40, the “Urinary Retention (patients/group)” value was 22/40 and the “Urinary Tract infection (patients/group)” value is reported as 3/40. For the same compound, in data set [2], the “Clinical Progression of BPH … (patients/group)” value is 18/40; the “Side Effects” value was “dizziness, postural hypotension, and asthenia”; the “patients who discontinued the treatment” value is listed as 99%; the Incontinence came out at 15%. In data set [2], the “Invasive Therapy due to BPH” value is given as 12.5%, the “Urinary Retention” value amounted to 55%, the “Urinary Tract infection” value worked out at 7.5% and the “Clinical Progression of BPH at 12 months of treatment” value is 45%. Moreover, in data set [2], the “Increase in symptoms according to the score from American Association of Urology at 12 months of treatment” value is 50% and the “Increase in symptoms according to the score from American Association of Urology at 12 months of treatment (patients/group)” value was 20/40. The “share of the dose removed by urine” value in data set [4] is 9%. In the data set on blood pressure, the “duration of hypotensive effects (remaining active)” value is recorded as “at least 24 hours” and the “time at which hypotensive effects are observed” value was 2 h.
